Source: patent US20240366693A1, “COMPOSITIONS FOR ENHANCING IMMUNOTHERAPY EFFICACY IN COLORECTAL CANCER TREATMENT” (The Chinese University of Hong Kong, priority 2023, published 2024)

Experiments:
CT26 = assay: ICA model in CT26 syngeneic mice with anti-PD1 and Kyn supplementation; type: in vivo, mouse
Procedure: For indolecarboxylic acid (ICA) model, ICA (18 mg/kg, Sigma-Aldrich, St. Louis, MO) was gavaged to mice daily. Tumour inoculation and dosing schedule of anti-PD1 or isotype control is the same as described above. After the outgrowth of palpable tumours, kynurenine (Kyn, 10 mg/kg, Sigma-Aldrich) was intraperitoneally injected into mice twice weekly.

IDO1 = IDO1 mRNA expression in human CRC cell lines induced with IFNγ; type: cell-based; settings: HCT116 and LoVo; ICA 5 μM; IFNγ 100 ng/mL
Procedure: (§1) Total RNAs were extracted from cell pellets or colonic tissues using TRIzol Reagent (Life Technologies). Complementary DNA (cDNA) was prepared using PrimeScript RT Reagent Kit with gDNA Eraser (Takara, Shiga, Japan). The relative level of specific genes was determined by QuantStudio™ 7 Flex Real-Time PCR System (Thermo Fisher Scientific). All gene expression values were normalized to β-actin and calculated using the 2-ΔΔCt method.
Given that ICA was identified as the functional metabolite of L. gallinarum (FIG. 4), we postulated that ICA could be an IDO1 inhibitor. We added IFNγ (100 ng/mL) to induce IDO1 expression.

human AHR protein = target: T1, human AHR protein (Homo sapiens, UniProt P35869); assay: biochemical; type: binding
T1 sequence (P35869 11-848): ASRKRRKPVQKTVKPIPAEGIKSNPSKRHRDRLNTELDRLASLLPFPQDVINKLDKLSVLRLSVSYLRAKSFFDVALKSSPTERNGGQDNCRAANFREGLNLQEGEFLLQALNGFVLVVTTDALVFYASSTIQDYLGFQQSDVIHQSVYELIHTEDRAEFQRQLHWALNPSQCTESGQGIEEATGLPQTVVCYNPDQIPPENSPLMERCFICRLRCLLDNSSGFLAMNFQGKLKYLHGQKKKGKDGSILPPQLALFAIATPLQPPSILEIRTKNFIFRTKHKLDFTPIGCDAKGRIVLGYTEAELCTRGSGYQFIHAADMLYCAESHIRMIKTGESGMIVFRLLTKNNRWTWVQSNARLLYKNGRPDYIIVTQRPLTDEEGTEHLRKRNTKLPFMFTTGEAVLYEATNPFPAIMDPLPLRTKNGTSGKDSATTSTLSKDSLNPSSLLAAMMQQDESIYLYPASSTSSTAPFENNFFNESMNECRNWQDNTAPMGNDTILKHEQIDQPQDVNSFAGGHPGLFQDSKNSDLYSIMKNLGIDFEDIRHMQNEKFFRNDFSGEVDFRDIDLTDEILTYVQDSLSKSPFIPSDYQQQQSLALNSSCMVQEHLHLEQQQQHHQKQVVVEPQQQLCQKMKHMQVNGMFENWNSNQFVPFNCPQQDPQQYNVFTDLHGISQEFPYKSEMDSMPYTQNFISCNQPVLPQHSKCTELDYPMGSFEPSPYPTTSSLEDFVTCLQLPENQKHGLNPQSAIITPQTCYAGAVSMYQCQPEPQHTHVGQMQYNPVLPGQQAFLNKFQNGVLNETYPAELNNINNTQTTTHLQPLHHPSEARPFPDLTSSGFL
From the text: We also performed the surface plasma resonance (SPR) assay to explore the interaction between ICA/Kyn with the human AHR receptor. […] These support our hypothesis that ICA displaces Kyn from AHR receptor and inhibited Kyn-mediated Treg differentiation through receptor competition.

CD4+ T cells = assay: Foxp3+ Treg differentiation of CD4+ T cells in vitro; type: cell-based, mouse
Procedure: (§2) T cells were isolated from spleens of tumour-bearing mice by negative selection using magnetic cell separation (EasySep mouse T cell isolation kit, CD8+ T cell isolation kit or CD4+ CD25+ Regulatory T cell Isolation Kit II; STEMCELL Technologies, Vancouver, Canada). Isolated T cells were cultured in Roswell Park Memorial Institute 1640 medium supplemented with 10% FBS, 50 μM β-mercaptoethanol, 10 ng/ml mouse recombinant interleukin-2 (IL-2), 0.1 ng/mL transforming growth factor β (TGFβ) and activated with Dynabeads mouse anti-CD3/CD28 beads (Thermo Fisher Scientific, Waltham, MA) for 72 hours. Cells were then collected for analysis.

AHR = AHR target gene CYP1B1 expression on CD4+ T cells; type: cell-based, mouse
Procedure: as §2, §1

HCT116, LoVo, SW480 [1] = assay: Cell viability assay on CRC cells (R. intestinalis example); type: cell-based, human; settings: R.i CM 5% (vol/vol); butyrate 1 mM; inosine 0.4 μg/ml
Procedure: 1000 cells per well were seed into a 96-well plate and treated with alive or pasteurized E. coli (CFU=10^6/ml) and R. intestinalis (CFU=10^6/ml), 5% (vol/vol) YCFA, E. coli CM, R. i CM in DMEM separately. Cell viability was determined by Thiazolyl Blue Tetrazolium Bromide (M5644, Merck KGaA, Dacmstadt, DE) 3 days constantly.

CD8+ T cells [2] = assay: Cytotoxic CD8+ T cell markers, T cells from human PBMC; type: cell-based; settings: human PBMC T cells activated by α-CD3/CD28 and IL-2; butyrate 1 mM
Procedure: (§3) T cells isolated from healthy human peripheral blood mononuclear cells (PBMC) using immunomagnetic negative selection kit (17951, Stemcell Technologies, Vancouver, CA). Isolated T cells were then cultured in complete RPMI-1640 medium supplied with human CD3/CD28 magnet beads (11161D, Thermo Fisher Scientific, Waltham, US) and 30 U/ml recombinant human IL-2 (589104, BioLgend, San Diego, US) for expiation and activation for three days. Mouse T cells were isolated from the spleen of naïve mice and purified with Mouse T cell isolation kit (19851, Thermo Fisher Scientific, Waltham, US), cultured in complete RPMI-1640 medium with mouse CD3/CD28 beads (11456D, Thermo Fisher Scientific, Waltham, US) and 30 U/ml recombinant mouse IL-2 (575404, BioLegend, San Diego, US).
(§4) Cytotoxic CD8+ T cell markers Granzyme B, IFN-γ, TNF-α under the in vitro treatments of R.i CM, NaBu or TLR5 inbibitor TH1020 (HY-116961, MedChemExpress, Monmouth Junction, US) were analyzed with flow cytometry. Isolated human T cells were stimulated with 30 ng/ml PMA, 1 μg/ml ionomycin and 2.5 μg/ml monensin in complete RPMI-1640 medium at 37° C. for 4 hours. […]

TLR5 [3] = target: TLR5 (Homo sapiens, UniProt O60602); assay: biochemical
Tlr5 [4] = assay: qPCR of receptors and transporters on CD8+ T cells; type: cell-based, mouse; settings: butyrate treatment
Procedure: Total RNA was extracted with Trizol (15596018, Invitrogen, Waltham, US) from naïve mouse spleen isolated T cells after CD3/CD28/IL-2 activation and R.i CM and Butyrate treatments. Then, RNA was reverse transcript into cDNA with RT reagent kit with gDNA eraser (R[…], Takara, Tokyo, JPN). qPCR was performed using TB Green Premix (R[…], Takara) in the QuantStudio 7 Flex System (Thermo Fisher Scientific, Waltham, US). The relative RNA expression was normalized to that of β-actin as denominators.

HCT116, LoVo, SW480 [5] = assay: Cell apoptosis and cell cycle (flow cytometry, western blot); type: cell-based, human; settings: R.i CM 5%; butyrate 1 mM; inosine 0.4 μg/ml
Procedure: Flow Cytometry was used for cell apoptosis and cell cycle analysis with FACSAria cell sorter (BD Biosciences, Franklin Lakes, US). Data was analyzed by FlowJo 10.4.
Cell apoptosis was detected by FITC Annexin V apoptosis detection kit (556547, BD Biosciences, Franklin Lakes, US). Adherent cells were removed by Trypsin-EDTA solution and washed with cold PBS twice and then resuspend in binding buffer at a concentration of 1× 10^6 cells/ml. 100 μl of cell solution was transferred to a 5 ml tube, incubated with 5 μl FITC Annexin V and 5 μl PI for 15 minutes at 25° C. in the dark. Cells were added with 400 μl binding buffer to stop staining and analyzed by flow cytometer in one hour.
For cell cycle analysis, cell pellet was washed by PBS and incubated in 70 to 80% ethanol at −20° C. for more than two hours. In each test, 10^6 cells were used for staining in 0.5 ml PI/RNase staining buffer (550825, BD Biosciences, Franklin Lakes, US) for 15 minutes at room temperature in the dark. Tubes were stored at 4° C. protected from light and analyzed on flow cytometer with one hour.

CD8+ T cells [6] = assay: Cytotoxic CD8+ T cell markers, T cells from mouse spleen; type: cell-based; settings: butyrate 1 mM, inosine 0.4 μg/ml
Procedure: as §3, §4

NF-κB = assay: Phospho-NF-κB p65 in activated Jurkat E6.1 T cells; type: cell-based, human; settings: α-CD3/CD28/IL-2 activated Jurkat E6.1 T cells
Procedure: Phospho-NF-κB p65 (Ser536) Rabbit mAb (3033, Cell Signalling Technology, Danvers, US, 1:1000) and NF-κB p65 (D14E12) Rabbit mAb (8242, Cell Signalling Technology, Danvers, US, 1:1000) were used to measure NF-κB nuclear translocation in αCD3/αCD28/IL2 activated Jurkat E6.1 T cells.
Normal human epithelial cell NCM460, human CRC cell lines HCT116, LoVo, SW480, and mouse CRC cell lines MC38 and CT26 were cultured in Dulbecco's Modified Eagle's Medium (DMEM) with 10% fetal bovine serum (FBS) and 1% penicillin-streptomycin (P/S). Jurkat E6.1 (TIB-152, ATCC) was cultured in RPMI-1640 supplied with 10% FBS and 1% penicillin-streptomycin and activated in 3 μg/ml anti-CD3 (300332, BioLgend, San Diego, US), 5 μg/ml anti-human CD28 (302934, BioLgend, San Diego, US) and 100 IU/ml recombinant human IL-2 (589104, BioLgend, San Diego, US) pre-coated wells for 3 days.

[7] = ICA 18 mg/kg daily gavage with anti-PD1 vs vehicle control

Sequence of TLR5 (O60602 21-858, species assumed): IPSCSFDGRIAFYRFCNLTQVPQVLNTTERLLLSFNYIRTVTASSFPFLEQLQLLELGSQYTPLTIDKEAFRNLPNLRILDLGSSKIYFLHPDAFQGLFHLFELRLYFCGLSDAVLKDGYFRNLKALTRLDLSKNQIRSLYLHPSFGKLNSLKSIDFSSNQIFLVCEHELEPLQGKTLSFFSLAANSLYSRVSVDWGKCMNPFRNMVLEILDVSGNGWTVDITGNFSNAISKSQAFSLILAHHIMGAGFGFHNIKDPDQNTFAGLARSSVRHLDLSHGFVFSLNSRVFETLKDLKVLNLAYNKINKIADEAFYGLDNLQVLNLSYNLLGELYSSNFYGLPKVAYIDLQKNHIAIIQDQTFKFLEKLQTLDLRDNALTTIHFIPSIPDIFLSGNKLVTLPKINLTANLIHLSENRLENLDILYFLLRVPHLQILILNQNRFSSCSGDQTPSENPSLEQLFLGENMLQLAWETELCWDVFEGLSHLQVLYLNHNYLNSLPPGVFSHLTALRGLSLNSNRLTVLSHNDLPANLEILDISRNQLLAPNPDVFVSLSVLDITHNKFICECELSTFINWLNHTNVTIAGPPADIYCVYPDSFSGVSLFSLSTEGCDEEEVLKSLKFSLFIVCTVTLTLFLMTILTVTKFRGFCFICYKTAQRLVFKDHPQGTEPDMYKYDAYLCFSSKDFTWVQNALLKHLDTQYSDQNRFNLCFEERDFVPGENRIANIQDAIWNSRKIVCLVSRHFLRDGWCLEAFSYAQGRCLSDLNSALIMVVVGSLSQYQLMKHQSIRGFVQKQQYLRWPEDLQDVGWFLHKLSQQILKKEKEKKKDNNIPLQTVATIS

Question: For `O=C(O)c1c[nH]c2ccccc12` [ICA, indole-3-carboxylic acid], which “IFNγ+ CD8+ T cells” value (CT26; ICA) is on record?
Answer: increased IFNγ+ CD8+ T cells

Question: What about the “Kyn level in serum” value (CT26; ICA) of the same compound?
Answer: significantly reduced Kyn level

Question: And the “Kyn level in tumour” value (CT26; ICA)?
Answer: significantly reduced Kyn level

Question: And the “Kyn/Trp ratio in tumour” value (CT26; ICA)?
Answer: significantly reduced

Question: And the Treg infiltration (CT26; ICA)?
Answer: reduced Treg infiltration

Question: And the tumour volume (CT26; [7])?
Answer: reduced tumour weight and tumour volume

Question: And the tumour weight (CT26; [7])?
Answer: reduced tumour weight

Question: And the IDO1 expression (IDO1)?
Answer: significantly suppressed IDO1 expression

Question: What about the Kd (human AHR protein) of the same compound?
Answer: ~39.4 µM

Question: And the “Kyn-mediated Treg differentiation” value (CD4+ T cells; ICA added to Kyn 50 μM)?
Answer: antagonized Kyn-mediated Treg differentiation in a dose-dependent manner

Question: And the “Treg differentiation, treatment alone” value (CD4+ T cells; naïve CD4+ T cells, without Kyn)?
Answer: none significantly affected Treg differentiation

Question: And the “ICA dose antagonizing Kyn-mediated Treg differentiation” value (CD4+ T cells; with Kyn 50 μM)?
Answer: ≥ 1.25 µM

Question: What about the “Kyn-induced CYP1B1 expression” value (AHR; ICA added to Kyn 50 μM) of the same compound?
Answer: markedly suppressed Kyn-induced CYP1B1 expression

Question: And the CYP1B1 expression (AHR; ICA alone)?
Answer: weakly promoted CYP1B1 expression

Question: For `CCCC(=O)O` [butyrate, butyric acid], which “cell viability of CRC cells” value (HCT116, LoVo, SW480 [1]) is on record?
Answer: cell viability inhibition

Question: What about the “production of Granzyme B, IFN-γ and TNF-α in CD8+ T cells” value (CD8+ T cells [2]) of the same compound?
Answer: promoted the production of Granzyme B, IFN-γ and TNF-α in CD8^+ T cells

Question: And the Kd (TLR5 [3])?
Answer: 264 µM

Question: And the Tlr5 expression (Tlr5 [4])?
Answer: much higher

Question: What about the cell apoptosis (HCT116, LoVo, SW480 [5]) of the same compound?
Answer: apoptosis inducement

Question: And the cell cycle (HCT116, LoVo, SW480 [5])?
Answer: cell cycle arrest

Question: And the “Granzyme B+, IFN-γ+, TNF-α+ CD8+ T cells” value (CD8+ T cells [6])?
Answer: directly boosted Granzyme B^+, IFN-γ^+, TNF-α^+ CD8^+ T cells

Question: What about the “NF-κB nuclear translocation / phospho-NF-κB expression” value (NF-κB) of the same compound?
Answer: increased NF-κB nuclear translocation with higher phospho-NF-κB expression
